Laboratory results taken from the NIST ThermoML archive (doi:10.1021/je901020a).

Experiments:
[1] = xn = mol fraction of the nth substance listed; conditions: 101 kPa, Liquid; for speed of sound: Pulse-echo method
[2] = refractive index (Na D-line) (dimensionless); xn = mol fraction of the nth substance listed; conditions: 101 kPa, Liquid, Standard Abbe refractometry

Cc1cccc(C)c1 [1,3-dimethylbenzene] + CC1CCCCC1
Conditions | mass density, [1] [kg/m3] | refractive index, [2] | speed of sound, [1] [m/s]
298.15 K, x2 = 0 | 859.8 | 1.49466 | 1321
298.15 K, x2 = 0.0514 | 854.4 | 1.49046 | 1313
298.15 K, x2 = 0.0975 | 849.6 | 1.4867 | 1307
298.15 K, x2 = 0.159 | 843.2 | 1.48174 | 1298
298.15 K, x2 = 0.2977 | 829.1 | 1.47072 | 1281
298.15 K, x2 = 0.399 | 819.1 | 1.46292 | 1269
298.15 K, x2 = 0.4954 | 809.7 | 1.45565 | 1258
298.15 K, x2 = 0.5965 | 800.2 | 1.44827 | 1248
298.15 K, x2 = 0.6974 | 791 | 1.44107 | 1238
298.15 K, x2 = 0.7948 | 782.3 | 1.4343 | 1230
298.15 K, x2 = 0.8933 | 773.8 | 1.42759 | 1222
298.15 K, x2 = 0.9495 | 769.1 | 1.42388 | 1218
313.15 K, x2 = 0 | 846.9 | 1.48653 | 1259
313.15 K, x2 = 0.0457 | 842.1 | 1.4829 | 1252
313.15 K, x2 = 0.0933 | 837.1 | 1.47908 | 1246
313.15 K, x2 = 0.1938 | 826.7 | 1.47103 | 1232
313.15 K, x2 = 0.2886 | 817 | 1.46361 | 1219
313.15 K, x2 = 0.3966 | 806.3 | 1.45534 | 1206
313.15 K, x2 = 0.5077 | 795.5 | 1.44702 | 1194
313.15 K, x2 = 0.595 | 787.3 | 1.44063 | 1184
313.15 K, x2 = 0.6933 | 778.3 | 1.43362 | 1175
313.15 K, x2 = 0.7987 | 768.8 | 1.42615 | 1165
313.15 K, x2 = 0.8973 | 760.3 | 1.41945 | 1157
313.15 K, x2 = 0.9504 | 756.1 | 1.41609 | 1153

CC1CCCCC1 [methylcyclohexane] + Cc1ccc(C)cc1
Conditions | mass density, [1] [kg/m3] | refractive index, [2] | speed of sound, [1] [m/s]
298.15 K, x1 = 0.0513 | 851.4 | 1.48906 | 1303
298.15 K, x1 = 0.0979 | 846.7 | 1.48531 | 1297
298.15 K, x1 = 0.1917 | 837.2 | 1.47789 | 1285
298.15 K, x1 = 0.3009 | 826.5 | 1.46944 | 1272
298.15 K, x1 = 0.3971 | 817.3 | 1.46214 | 1262
298.15 K, x1 = 0.4963 | 808 | 1.4548 | 1252
298.15 K, x1 = 0.5987 | 798.8 | 1.44757 | 1243
298.15 K, x1 = 0.6966 | 789.9 | 1.44052 | 1234
298.15 K, x1 = 0.7958 | 781.6 | 1.43389 | 1227
298.15 K, x1 = 0.8922 | 773.4 | 1.42739 | 1221
298.15 K, x1 = 0.9501 | 768.9 | 1.42377 | 1217
298.15 K, x1 = 1 | 765 | 1.42062 | 1215
313.15 K, x1 = 0.0506 | 838.4 | 1.48121 | 1242
313.15 K, x1 = 0.1051 | 832.9 | 1.4771 | 1234
313.15 K, x1 = 0.204 | 823.1 | 1.46914 | 1221
313.15 K, x1 = 0.3096 | 812.6 | 1.46083 | 1209
313.15 K, x1 = 0.4064 | 803.4 | 1.45361 | 1198
313.15 K, x1 = 0.5061 | 794 | 1.44635 | 1188
313.15 K, x1 = 0.605 | 785.1 | 1.43928 | 1179
313.15 K, x1 = 0.7057 | 776.2 | 1.43227 | 1170
313.15 K, x1 = 0.8112 | 767.2 | 1.42509 | 1162
313.15 K, x1 = 0.9095 | 759 | 1.41853 | 1155
313.15 K, x1 = 0.9599 | 755 | 1.41538 | 1152
313.15 K, x1 = 1 | 751.9 | 1.41274 | 1150
